From US9840481B2, “Allosteric modulators of nicotinic acetylcholine receptors” (MERCK SHARP & DOHME CORP., priority 2016, dated 2017) come the findings set out here.

Molecules are shown by their SMILES. Like-named read-outs stand apart in the source and are kept apart here.

This test concerns the target T1, human α7 nAChR stably expressed in a HEK cell line (with human RIC-3) (Homo sapiens, UniProt P36544).
T1 construct: PrecisION hnAChR α7/RIC-3
Briefly: Automated patch-clamp electrophysiology functional assay (Assay A), IonFlux HT, whole-cell population patch. The test is classed as cell-based. The method in brief:
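Whole-cell population patch clamp (IonFlux HT) used HEK cells stably co-expressing human α7 and RIC-3, held at −60 mV at room temperature. Compounds were applied alone (agonism) or with 40 μM acetylcholine (potentiation), three ascending concentrations per recording. Currents were quantified relative to a 40 μM acetylcholine reference response, giving EC50.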
In general terms: The patch-clamp technique gives a direct electrical read-out from membranes.

The mark [1] stands for this setting: automated patch-clamp electrophysiology functional assay (Assay A), potency class by EC50, read-out: α7 nAChR Potency.
Setting [2] is: electrophysiology EC50, HEK cells expressing human α7/RIC-3, 40 μM acetylcholine, holding potential −60 mV, room temperature, read-out: α7 nAChR EC50.

T1 sequence (P36544 23-502): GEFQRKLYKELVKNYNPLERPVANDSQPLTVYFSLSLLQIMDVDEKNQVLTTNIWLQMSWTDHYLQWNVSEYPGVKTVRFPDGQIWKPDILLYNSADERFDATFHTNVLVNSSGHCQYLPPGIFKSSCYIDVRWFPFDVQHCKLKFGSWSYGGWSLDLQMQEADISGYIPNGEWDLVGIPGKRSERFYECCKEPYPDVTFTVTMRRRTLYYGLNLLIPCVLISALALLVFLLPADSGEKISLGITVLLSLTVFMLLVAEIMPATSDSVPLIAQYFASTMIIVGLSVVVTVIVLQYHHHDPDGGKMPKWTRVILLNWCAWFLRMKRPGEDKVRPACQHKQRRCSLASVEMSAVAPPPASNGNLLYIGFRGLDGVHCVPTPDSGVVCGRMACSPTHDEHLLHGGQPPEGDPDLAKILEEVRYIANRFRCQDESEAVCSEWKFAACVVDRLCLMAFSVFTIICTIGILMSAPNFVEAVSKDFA

`CC1(C)[C@@H](c2ccc(S(N)(=O)=O)cc2)[C@@H]1c1nnc(-c2ccc(F)cc2F)o1` [Example 6, 4-{(1S,3S)-3-[5-(2,4-Difluorophenyl)-1,3,4-oxadiazol-2-yl]-2,2-dimethylcyclopropyl}benzenesulfonamide]: the EC50 runs as follows: under setting [1], 0.5 to 5 µM; under setting [2], 1.1 µM. For `CC1(C)[C@H](c2ccc(S(N)(=O)=O)cc2)[C@H]1c1cnn(-c2cccc(F)c2)c1` [Example 13, 4-{(1R,3R)-3-[1-(3-Fluorophenyl)-1H-pyrazol-4-yl]-2,2-dimethylcyclopropyl}benzenesulfonamide], in that order: 0.1 to 0.5 µM and 0.34 µM. Take `CC1(C)[C@@H](c2ccc(S(N)(=O)=O)cc2)[C@@H]1c1noc(CCC2CC2)n1` [Example I33]: the EC50 under setting [1] fell in the range of 0.5 to 5 µM. In the case of `CC(C)Oc1ccc(Cl)cc1-c1noc([C@@H]2[C@@H](c3ccc(S(N)(=O)=O)cc3)C2(C)C)n1` [Example A4], the EC50 reads like this: under setting [1], 0.5 to 5 µM; under setting [2], 4.8 µM.
